Data: US20240166635A1, “AMINOHETEROARYL KINASE INHIBITORS” (Anrui Biomedical Technology (Guangzhou) Co.,Ltd., priority 2020, published 2024)

Key:
Type in all cases: biochemical
CDK7/CyclinH/MAT1 = CDK7/CyclinH/MAT1 (Homo sapiens (Human), UniProt P50613); assay: CDK7/CyclinH/MAT1 kinase inhibitory activity (Caliper mobility shift)
CDK1/CyclinB = CDK1/CyclinB (Homo sapiens (Human), UniProt P06493); assay: CDK1/CyclinB kinase inhibitory activity (Caliper mobility shift); conditions: read-out: CDK1/Cyclin B1 IC50
CDK2/CyclinE1 = CDK2/CyclinE1 (Homo sapiens (Human), UniProt P24941); assay: CDK2/CyclinE1 kinase inhibitory activity (Caliper mobility shift); conditions: read-out: CDK2/Cyclin El IC50
CDK6/CyclinD1 = CDK6/CyclinD1 (Homo sapiens (Human), UniProt Q00534); assay: CDK6/CyclinD1 kinase inhibitory activity (Caliper mobility shift); conditions: read-out: CDK6/Cyclin D1 IC50
CDK9/CyclinT1 = CDK9/CyclinT1 (Homo sapiens (Human), UniProt P50750); assay: CDK9/CyclinT1 kinase inhibitory activity (Caliper mobility shift); conditions: read-out: CDK9/Cyclin T1 IC50
CDK4/Cyclin D1 = CDK4/Cyclin D1 (Homo sapiens (Human), UniProt P11802); assay: CDK4/CyclinD1 kinase inhibitory activity (Caliper mobility shift)
CDK4/Cyclin D1, sequence (P11802 whole entry): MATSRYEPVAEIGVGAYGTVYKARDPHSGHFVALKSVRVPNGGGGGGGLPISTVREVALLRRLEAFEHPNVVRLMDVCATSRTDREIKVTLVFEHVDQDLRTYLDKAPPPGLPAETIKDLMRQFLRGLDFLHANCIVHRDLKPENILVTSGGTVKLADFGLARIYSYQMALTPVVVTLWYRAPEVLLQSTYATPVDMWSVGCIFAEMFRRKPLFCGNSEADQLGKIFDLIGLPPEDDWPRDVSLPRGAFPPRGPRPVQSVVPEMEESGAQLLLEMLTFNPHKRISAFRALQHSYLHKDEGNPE
CDK4/Cyclin D1, sequence (P24385 whole entry partner): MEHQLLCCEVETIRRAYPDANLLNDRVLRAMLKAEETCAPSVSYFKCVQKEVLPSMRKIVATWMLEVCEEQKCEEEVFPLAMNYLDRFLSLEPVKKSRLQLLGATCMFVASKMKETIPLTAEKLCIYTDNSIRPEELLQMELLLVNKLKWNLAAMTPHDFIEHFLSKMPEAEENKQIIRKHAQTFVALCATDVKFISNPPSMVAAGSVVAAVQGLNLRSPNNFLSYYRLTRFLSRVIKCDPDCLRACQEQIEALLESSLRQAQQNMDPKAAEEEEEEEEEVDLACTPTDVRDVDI

CDK9/CyclinT1, sequence (P50750 whole entry): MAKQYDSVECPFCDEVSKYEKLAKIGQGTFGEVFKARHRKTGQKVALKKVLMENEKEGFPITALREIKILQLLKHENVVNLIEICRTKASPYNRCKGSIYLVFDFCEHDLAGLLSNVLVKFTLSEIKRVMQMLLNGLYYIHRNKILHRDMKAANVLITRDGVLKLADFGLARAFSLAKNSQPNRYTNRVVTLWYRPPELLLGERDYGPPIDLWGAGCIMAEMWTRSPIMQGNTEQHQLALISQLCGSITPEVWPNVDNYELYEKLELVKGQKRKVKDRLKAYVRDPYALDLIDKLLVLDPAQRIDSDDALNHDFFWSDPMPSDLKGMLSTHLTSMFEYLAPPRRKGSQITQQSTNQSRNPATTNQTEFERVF
CDK9/CyclinT1, sequence (O60563 whole entry partner): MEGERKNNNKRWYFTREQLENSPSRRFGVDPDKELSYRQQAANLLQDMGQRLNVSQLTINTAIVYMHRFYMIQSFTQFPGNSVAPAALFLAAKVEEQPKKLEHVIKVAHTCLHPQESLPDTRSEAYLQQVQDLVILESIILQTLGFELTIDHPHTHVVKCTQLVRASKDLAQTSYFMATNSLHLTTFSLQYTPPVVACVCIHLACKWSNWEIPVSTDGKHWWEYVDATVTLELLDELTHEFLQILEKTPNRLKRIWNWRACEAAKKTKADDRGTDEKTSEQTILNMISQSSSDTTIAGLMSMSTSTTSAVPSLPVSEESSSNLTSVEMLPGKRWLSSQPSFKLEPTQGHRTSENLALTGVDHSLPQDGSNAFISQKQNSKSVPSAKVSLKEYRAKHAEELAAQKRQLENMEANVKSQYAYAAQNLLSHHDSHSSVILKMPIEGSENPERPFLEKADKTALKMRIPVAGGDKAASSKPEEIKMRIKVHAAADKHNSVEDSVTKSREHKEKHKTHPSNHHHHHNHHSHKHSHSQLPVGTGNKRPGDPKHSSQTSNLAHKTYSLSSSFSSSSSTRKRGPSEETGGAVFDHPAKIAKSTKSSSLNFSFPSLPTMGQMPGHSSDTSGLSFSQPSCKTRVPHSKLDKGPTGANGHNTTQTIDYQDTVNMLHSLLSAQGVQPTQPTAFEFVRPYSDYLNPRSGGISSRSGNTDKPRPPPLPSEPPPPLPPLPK
CDK1/CyclinB, sequence (P06493 whole entry): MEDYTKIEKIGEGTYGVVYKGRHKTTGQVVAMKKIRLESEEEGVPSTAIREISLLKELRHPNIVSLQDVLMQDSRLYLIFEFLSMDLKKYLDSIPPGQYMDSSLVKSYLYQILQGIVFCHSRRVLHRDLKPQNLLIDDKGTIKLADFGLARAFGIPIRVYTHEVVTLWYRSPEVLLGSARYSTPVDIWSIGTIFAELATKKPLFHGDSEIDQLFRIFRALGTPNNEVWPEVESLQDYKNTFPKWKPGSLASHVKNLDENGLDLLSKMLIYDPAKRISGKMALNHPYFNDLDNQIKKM
CDK1/CyclinB, sequence (P14635 whole entry partner): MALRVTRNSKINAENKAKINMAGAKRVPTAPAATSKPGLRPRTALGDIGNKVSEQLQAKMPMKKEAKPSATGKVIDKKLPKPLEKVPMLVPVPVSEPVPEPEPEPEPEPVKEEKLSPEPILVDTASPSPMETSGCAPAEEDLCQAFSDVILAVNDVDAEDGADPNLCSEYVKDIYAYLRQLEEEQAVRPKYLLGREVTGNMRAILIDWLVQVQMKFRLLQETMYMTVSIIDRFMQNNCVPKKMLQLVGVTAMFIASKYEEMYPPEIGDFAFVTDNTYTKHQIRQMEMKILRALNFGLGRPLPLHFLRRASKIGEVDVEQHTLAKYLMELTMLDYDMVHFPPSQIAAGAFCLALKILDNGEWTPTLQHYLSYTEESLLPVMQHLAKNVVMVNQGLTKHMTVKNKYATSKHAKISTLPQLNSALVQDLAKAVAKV
CDK7/CyclinH/MAT1, sequence (P50613 whole entry): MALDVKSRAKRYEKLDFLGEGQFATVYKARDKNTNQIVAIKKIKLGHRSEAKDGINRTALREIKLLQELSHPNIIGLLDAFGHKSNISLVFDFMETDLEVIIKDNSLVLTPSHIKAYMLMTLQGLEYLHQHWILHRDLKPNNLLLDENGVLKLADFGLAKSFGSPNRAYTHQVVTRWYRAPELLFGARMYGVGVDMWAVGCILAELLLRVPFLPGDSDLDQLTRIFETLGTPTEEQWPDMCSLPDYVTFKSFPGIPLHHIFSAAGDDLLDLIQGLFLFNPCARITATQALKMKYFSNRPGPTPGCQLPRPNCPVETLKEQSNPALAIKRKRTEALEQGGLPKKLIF
CDK7/CyclinH/MAT1, sequence (P51946 whole entry partner): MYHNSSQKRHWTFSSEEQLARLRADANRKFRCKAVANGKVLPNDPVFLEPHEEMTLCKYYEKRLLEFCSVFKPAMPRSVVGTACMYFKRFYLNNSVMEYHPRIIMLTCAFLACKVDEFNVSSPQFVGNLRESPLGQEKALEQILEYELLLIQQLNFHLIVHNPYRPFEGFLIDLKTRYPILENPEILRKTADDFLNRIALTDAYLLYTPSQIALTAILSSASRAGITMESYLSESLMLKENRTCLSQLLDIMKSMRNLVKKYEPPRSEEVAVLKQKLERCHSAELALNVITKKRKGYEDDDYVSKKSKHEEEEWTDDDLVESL
CDK7/CyclinH/MAT1, sequence (P51948 whole entry partner): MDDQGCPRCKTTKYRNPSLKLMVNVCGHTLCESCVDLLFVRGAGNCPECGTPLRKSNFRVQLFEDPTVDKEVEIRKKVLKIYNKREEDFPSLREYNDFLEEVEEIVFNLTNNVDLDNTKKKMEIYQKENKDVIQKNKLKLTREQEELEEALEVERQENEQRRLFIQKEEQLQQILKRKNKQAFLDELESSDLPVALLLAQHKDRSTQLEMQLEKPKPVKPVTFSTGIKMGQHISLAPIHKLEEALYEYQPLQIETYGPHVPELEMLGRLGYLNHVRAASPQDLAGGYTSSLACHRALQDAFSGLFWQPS
CDK6/CyclinD1, sequence (Q00534 whole entry): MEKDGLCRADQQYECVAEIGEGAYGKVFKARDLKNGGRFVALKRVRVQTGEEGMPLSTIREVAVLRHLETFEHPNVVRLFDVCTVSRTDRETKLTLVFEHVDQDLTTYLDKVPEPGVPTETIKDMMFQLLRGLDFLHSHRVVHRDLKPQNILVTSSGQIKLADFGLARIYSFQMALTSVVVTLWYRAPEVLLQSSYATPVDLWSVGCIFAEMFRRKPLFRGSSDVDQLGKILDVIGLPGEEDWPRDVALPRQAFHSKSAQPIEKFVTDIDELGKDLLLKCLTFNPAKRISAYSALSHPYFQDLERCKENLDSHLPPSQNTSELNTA
CDK6/CyclinD1, sequence (P24385 whole entry partner): as the sequence (P24385 whole entry partner) above

Row | IC50 (CDK7/CyclinH/MAT1) [nM] | IC50 (CDK1/CyclinB) [nM] | IC50 (CDK2/CyclinE1) [nM] | IC50 (CDK6/CyclinD1) [nM] | IC50 (CDK9/CyclinT1) [nM] | IC50 (CDK4/Cyclin D1) [nM] | SMILES
1 | 10 to 100 | 10 to 100 | < 10 | – | – | – | NS(=O)(=O)c1ccc(Nc2ncc(C(F)(F)F)c(OC3COCCC3O)n2)cc1 (single isomer, unassigned) [Example 115a]
2 | ≥ 1000 | 100 to 1000 | – | 100 to 1000 | – | – | [2H]C([2H])([2H])NS(=O)(=O)c1ccc(Nc2ncc(C(F)(F)F)c(OC3CCOCCC3O)n2)cc1 (single isomer, unassigned) [Example 102c, 4-((4-((5-hydroxyoxepan-4-yl)oxy)-5-(trifluoromethyl)pyrimidin-2-yl)amino)-N-(methyl-d3)benzenesulfonamide]
3 | 100 to 1000 | 10 to 100 | < 10 | 100 to 1000 | 100 to 1000 | – | C[C@@H]1CCCCN1c1nc(Nc2ccc(S(N)(=O)=O)cc2)ncc1C#N [Example 73]
4 | 10 to 100 | 10 to 100 | < 10 | – | 100 to 1000 | – | CS(=O)(=O)N1CCC(Nc2ncc(C(F)(F)F)c(OC3CCCCCC3O)n2)CC1 (single isomer, unassigned) [Example 121a]
5 | ≥ 1000 | 100 to 1000 | 10 to 100 | 100 to 1000 | 100 to 1000 | – | C[C@@H]1CCCN(c2nc(Nc3ccc(S(N)(=O)=O)cc3)ncc2C#N)C1 [Example 72]
6 | ≥ 1000 | 100 to 1000 | 10 to 100 | ≥ 1000 | 100 to 1000 | – | N#Cc1cnc(Nc2ccc(S(N)(=O)=O)cc2)nc1-c1ccccc1 [Example 93]
7 | ≥ 1000 | 10 to 100 | < 10 | 100 to 1000 | 100 to 1000 | – | N#Cc1cnc(Nc2ccc(S(N)(=O)=O)cc2)nc1OCC1(CO)CCCCC1 [Example 17]
8 | 100 to 1000 | 10 to 100 | < 10 | – | 100 to 1000 | – | N#Cc1cnc(Nc2ccc(S(N)(=O)=O)cc2)nc1N1CCC[C@H](O)C1 [Example 69]
9 | – | 10 to 100 | < 10 | 10 to 100 | 100 to 1000 | < 10 | C[C@]1(O)CCC[C@H]1Oc1nc(NC2CCN(S(C)(=O)=O)CC2)ncc1C#N (relative stereo) [Example 5a, cis-4-((2-hydroxy-2-methylcyclopentyl-4,4-d2)oxy)-2-((1-(methylsulfonyl)piperidin-4-yl)amino)pyrimidine-5-carbonitrile]
10 | – | 100 to 1000 | 10 to 100 | 10 to 100 | ≥ 1000 | 100 to 1000 | C[C@]1(O)CC(F)(F)C[C@H]1Oc1nc(NC2CCN(S(C)(=O)=O)CC2)ncc1C#N (relative stereo) [Example 4b, cis-4-((4,4-difluoro-2-hydroxy-2-methylcyclopentyl)oxy)-2-((1-(methylsulfonyl)piperidin-4-yl)amino)pyrimidine-5-carbonitrile]
11 | 100 to 1000 | 10 to 100 | – | 100 to 1000 | – | – | [2H]C([2H])([2H])NS(=O)(=O)c1ccc(Nc2ncc(C(F)(F)F)c(OC3CCOCCC3O)n2)cc1 (single isomer, unassigned) [Example 102b, 4-((4-((5-hydroxyoxepan-4-yl)oxy)-5-(trifluoromethyl)pyrimidin-2-yl)amino)-N-(methyl-d3)benzenesulfonamide]
12 | – | – | 100 to 1000 | 100 to 1000 | – | 100 to 1000 | CC1(O)CCC(F)(F)CC1Oc1nc(NC2CCN(S(C)(=O)=O)CC2)ncc1C#N (single isomer, unassigned) [Example 46a]
13 | 100 to 1000 | < 10 | < 10 | – | < 10 | – | NS(=O)(=O)c1ccc(Nc2ncc(C(F)(F)F)c(OC3CCCCCC3O)n2)cc1 (single isomer, unassigned) [Example 118a]
14 | 100 to 1000 | 10 to 100 | < 10 | 100 to 1000 | 100 to 1000 | – | N#Cc1cnc(Nc2ccc(S(N)(=O)=O)cc2)nc1N1CCCC(c2ccccc2)C1 (single isomer, unassigned) [Example 85]
15 | ≥ 1000 | 10 to 100 | < 10 | 100 to 1000 | 10 to 100 | – | CC1(C)CCCN(c2nc(Nc3ccc(S(N)(=O)=O)cc3)ncc2C#N)C1 [Example 83]
16 | – | – | < 10 | 100 to 1000 | – | – | CNS(=O)(=O)c1ccc(Nc2ncc(C(F)(F)F)c(O[C@H]3CCCOC[C@H]3O)n2)cc1 (single isomer, unassigned) [Example 103b, cis-4-((4-((3-hydroxyoxepan-4-yl)oxy)-5-(trifluoromethyl)pyrimidin-2-yl)amino)-N-(methyl-d3)benzenesulfonamide]
17 | 10 to 100 | 10 to 100 | < 10 | – | 10 to 100 | – | NS(=O)(=O)N1CCC(Nc2ncc(C(F)(F)F)c(OC3CCCCCC3O)n2)CC1 (single isomer, unassigned) [Example 122b]
18 | – | – | < 10 | – | – | ≥ 1000 | CNS(=O)(=O)c1ccc(Nc2ncc(C(F)(F)F)c(OC3CCOCCC3O)n2)cc1 (single isomer, unassigned) [Example 102b, 4-((4-((5-hydroxyoxepan-4-yl)oxy)-5-(trifluoromethyl)pyrimidin-2-yl)amino)-N-(methyl-d3)benzenesulfonamide]

Row | IC50 (CDK7/CyclinH/MAT1) [nM] | IC50 (CDK1/CyclinB) [nM] | IC50 (CDK2/CyclinE1) [nM] | IC50 (CDK6/CyclinD1) [nM] | IC50 (CDK9/CyclinT1) [nM] | IC50 (CDK4/Cyclin D1) [nM] | SMILES
19 | ≥ 1000 | 100 to 1000 | – | 100 to 1000 | – | – | [2H]C([2H])([2H])NS(=O)(=O)c1ccc(Nc2ncc(C(F)(F)F)c(OC3CCOCCC3O)n2)cc1 (single isomer, unassigned) [Example 102d, 4-((4-((5-hydroxyoxepan-4-yl)oxy)-5-(trifluoromethyl)pyrimidin-2-yl)amino)-N-(methyl-d3)benzenesulfonamide]
20 | – | – | < 10 | – | – | ≥ 1000 | CNS(=O)(=O)c1ccc(Nc2ncc(C(F)(F)F)c(OC3CCOCCC3O)n2)cc1 (single isomer, unassigned) [Example 102c, 4-((4-((5-hydroxyoxepan-4-yl)oxy)-5-(trifluoromethyl)pyrimidin-2-yl)amino)-N-(methyl-d3)benzenesulfonamide]
21 | ≥ 1000 | 10 to 100 | < 10 | 100 to 1000 | 10 to 100 | – | C[C@H]1CCCN(c2nc(Nc3ccc(S(N)(=O)=O)cc3)ncc2C#N)C1 [Example 71]
22 | ≥ 1000 | 10 to 100 | 10 to 100 | ≥ 1000 | 10 to 100 | – | N#Cc1cnc(Nc2ccc(S(N)(=O)=O)cc2)nc1OCC1CCCC1 [Example 1, 4-((5-cyano-4-(cyclopentylmethoxy)pyrimidin-2-yl)amino)benzenesulfonamide]
23 | ≥ 1000 | 100 to 1000 | 10 to 100 | – | 100 to 1000 | – | N#Cc1cnc(Nc2ccc(S(N)(=O)=O)cc2)nc1N1CCC[C@@H](O)C1 [Example 70]
24 | – | – | – | ≥ 1000 | – | ≥ 1000 | CNS(=O)(=O)c1ccc(Nc2ncc(C(F)(F)F)c(O[C@H]3CCOC[C@H]3O)n2)c(F)c1 (single isomer, unassigned) [Example 101b, cis-3-fluoro-4-((4-((3-hydroxytetrahydro-2H-pyran-4-yl)oxy)-5-(trifluoromethyl)pyrimidin-2-yl)amino)-N-(methyl-d3)benzenesulfonamide]
25 | – | – | < 10 | – | – | ≥ 1000 | CNS(=O)(=O)c1ccc(Nc2ncc(C(F)(F)F)c(OC3CCOCCC3O)n2)cc1 (single isomer, unassigned) [Example 102d, 4-((4-((5-hydroxyoxepan-4-yl)oxy)-5-(trifluoromethyl)pyrimidin-2-yl)amino)-N-(methyl-d3)benzenesulfonamide]
26 | ≥ 1000 | 100 to 1000 | 10 to 100 | – | ≥ 1000 | – | CS(=O)(=O)N1CCC(Nc2ncc(C#N)c(N3CCCCC3)n2)CC1 [Example 89]
27 | ≥ 1000 | 10 to 100 | 10 to 100 | ≥ 1000 | 10 to 100 | – | NS(=O)(=O)c1ccc(Nc2ncc(F)c(N3CCCCC3)n2)cc1 [Example 86]
28 | 100 to 1000 | 10 to 100 | < 10 | 100 to 1000 | 100 to 1000 | – | N#Cc1cnc(Nc2ccc(S(N)(=O)=O)cc2)nc1OCC1(CO)CCCC1 [Example 15]
29 | ≥ 1000 | 10 to 100 | < 10 | 100 to 1000 | 100 to 1000 | – | N#Cc1cnc(Nc2ccc(S(=O)(=O)NC3COC3)cc2)nc1N1CCCCC1 [Example 66, 4-((5-cyano-4-(piperidin-1-yl)pyrimidin-2-yl)amino)-N-(oxetan-3-yl)benzenesulfonamide]
30 | ≥ 1000 | 100 to 1000 | 10 to 100 | – | 100 to 1000 | – | N#Cc1cnc(Nc2ccc(S(N)(=O)=O)cc2)nc1N1CCCC1 [Example 67]
31 | ≥ 1000 | 10 to 100 | < 10 | 100 to 1000 | 100 to 1000 | – | N#Cc1cnc(Nc2ccc(S(N)(=O)=O)cc2)nc1-c1ccc(O)cc1 [Example 92, 4-((5-cyano-4-(4-hydroxyphenyl)pyrimidin-2-yl)amino)benzenesulfonamide]
32 | ≥ 1000 | 100 to 1000 | 10 to 100 | ≥ 1000 | 100 to 1000 | – | CC1(COc2nc(Nc3ccc(S(N)(=O)=O)cc3)ncc2C#N)CCCCC1 [Example 14]
33 | – | 10 to 100 | < 10 | – | 100 to 1000 | – | CNS(=O)(=O)c1ccc(Nc2ncc(Cl)c(OC3CCCC3O)n2)cc1 (single isomer, unassigned) [Example 137b]
34 | – | 10 to 100 | < 10 | – | 100 to 1000 | – | CC(C)NS(=O)(=O)c1ccc(Nc2ncc(Cl)c(OC3CCCC3O)n2)cc1 (single isomer, unassigned) [Example 138b]
35 | ≥ 1000 | 10 to 100 | < 10 | 100 to 1000 | 100 to 1000 | – | C[C@H]1CCCCN1c1nc(Nc2ccc(S(N)(=O)=O)cc2)ncc1C#N [Example 74]
